# Experiments:
# Z-138 cells = experiment: Anti-cancer assay (Z-138), cell viability by CellTiterGlo; format: cell-based; settings: Homo sapiens, 96 h treatment, read-out: IC50 (activity range), inhibition of cell viability
# Procedure: Z-138 cells were seeded at a density of 2000-3000 cells per well in culture media (IMDM+10% FBS). PANC-1 (ATCC, CRL-1469™) and MIA PaCa-2 (ATCC, CRL-1420™) cells were seeded at a density of 200-300 cells per well in culture media (DMEM+10% FBS). Cells were seeded in opaque, flat bottomed tissue culture grade 96-well plates and Z-138 cells (suspension) were seeded and treated on the same day with various concentrations of test compounds. PANC-1 and MIA PaCa-2 cells, being adherent, were kept for overnight settlement at standard cell culture conditions (37° C., 5% CO2). On the following day, cells were treated with various concentrations of test compounds. Cells were treated with test compounds for a period of 96 h, 7 days and 10 days, for Z-138 cells, PANC-1 cells and MIA PaCa-2 cells, respectively. Cell viability was assessed using CellTiterGlo™ (Promega, USA) as per manufacturer's instructions. Relative Light Units (RLU) were read in Synergy™ 2 reader (Biotek, USA). The assay measures cellular ATP as an indicator of cell viability. RLU is proportional to the number of viable cells in the respective well. % inhibition of cell viability was calculated relative to the vehicle control samples containing media with 0.1% DMSO alone as per the formula below. (Avg. of Untreated Control−Avg. of Test)×100 Avg. Of Untreated Control
# The IC50 values of individual compounds were calculated with Non Linear Regression Analysis using Graph Pad Prism (Graph Pad software, Inc, USA). • Anti-Cancer Assay (Z-138)
# SDMA = SDMA inhibition assay in Z-138 cells (ELISA with anti-SDMA antibody); format: cell-based; settings: Homo sapiens, Z-138, 48 h, 48 h treatment, read-out: IC50 (activity range), SDMA inhibition
# Procedure: Z-138 cells (ATCC, CRL-3001™) were seeded at a density of 1 million cells/well in transparent, flat bottomed tissue culture grade 48-well plates. Cells were treated with various concentration of test compounds for a period of 48 h. Cell lysate was prepared using 1× CST Lysis buffer (Cell Signaling Technology, USA) and 500 ng/well/50 μL of lysate in pH 9.6 carbonate buffer was coated on 96-well Maxisorb plate and incubated overnight at 4° C. The plate was washed twice in 1×PBS containing 0.05% Tween 20 and blocked in 1% BSA for 1 h at ambient temperature. Further, the plate was incubated first with primary antibody (anti-SDMA antibody; CST #13222s) at ambient temperature for 2 h and then with HRP-conjugated secondary antibody at ambient temperature for 1 h with 2 intermittent washing steps in between.
# For luminiscence based detection, HRP substrates (substrate A+substrate B in a 1:1 proportion) were added followed by luminiscence reading after 30 min in Synergy™ 2 reader (Biotek, USA).
# For absorbance based detection, TMB substrate was added followed by addition of STOP solution (2N H2SO4) post colour development and absorbance (excitation 450 nm and emission 540 nm) was measured in Synergy™ 2 reader (Biotek, USA).
# % inhibition of SDMA was calculated relative to the vehicle control samples containing media with 0.1% DMSO alone as per the formula below. (Avg. of Untreated Control−Avg. of Test)×100 Avg. Of Untreated Control
# The IC50 values of individual compounds were calculated with Non Linear Regression Analysis using Graph Pad Prism (Graph Pad software, Inc, USA).
# PRMT5:MEP50 = PRMT5:MEP50 (Homo sapiens, UniProt O14744); experiment: PRMT5 biochemical assay (HTRF, biotinylated H4R3 substrate), protocols 1 and 2; settings: 1 μM SAM, 50 nM biotinylated H4R3, protocol 1 or 2 not given, read-out: IC50 (activity range), inhibition of PRMT5
# Chain of PRMT5:MEP50 (O14744 whole entry, the tested form may be a part): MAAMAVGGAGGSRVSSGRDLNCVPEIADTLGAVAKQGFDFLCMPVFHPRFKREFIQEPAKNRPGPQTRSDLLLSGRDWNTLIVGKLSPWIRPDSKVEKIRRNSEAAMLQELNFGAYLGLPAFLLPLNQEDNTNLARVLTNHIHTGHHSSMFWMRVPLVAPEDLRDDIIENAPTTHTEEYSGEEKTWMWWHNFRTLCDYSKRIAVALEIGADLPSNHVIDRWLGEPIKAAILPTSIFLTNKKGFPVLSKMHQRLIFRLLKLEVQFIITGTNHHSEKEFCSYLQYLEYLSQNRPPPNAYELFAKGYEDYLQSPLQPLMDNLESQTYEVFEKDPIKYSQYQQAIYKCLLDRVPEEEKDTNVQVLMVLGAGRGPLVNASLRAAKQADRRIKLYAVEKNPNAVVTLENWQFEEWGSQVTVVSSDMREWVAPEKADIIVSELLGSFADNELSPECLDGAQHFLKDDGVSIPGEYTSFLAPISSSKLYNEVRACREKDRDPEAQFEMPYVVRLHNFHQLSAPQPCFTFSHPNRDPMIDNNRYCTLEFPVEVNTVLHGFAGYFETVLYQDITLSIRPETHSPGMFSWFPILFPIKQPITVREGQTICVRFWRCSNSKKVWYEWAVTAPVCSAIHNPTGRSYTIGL
# Chain of PRMT5:MEP50 (Q9BQA1 whole entry partner, the tested form may be a part): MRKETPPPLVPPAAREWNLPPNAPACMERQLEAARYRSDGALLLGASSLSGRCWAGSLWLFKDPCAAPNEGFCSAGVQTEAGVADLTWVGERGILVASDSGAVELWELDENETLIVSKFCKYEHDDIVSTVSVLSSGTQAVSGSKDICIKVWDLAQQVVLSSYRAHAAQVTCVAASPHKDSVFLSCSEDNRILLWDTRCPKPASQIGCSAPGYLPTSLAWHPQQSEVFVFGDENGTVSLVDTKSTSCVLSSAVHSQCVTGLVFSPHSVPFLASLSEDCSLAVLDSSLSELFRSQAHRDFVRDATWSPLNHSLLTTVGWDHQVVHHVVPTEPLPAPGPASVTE
# Procedure: (§1) Inhibitory effect of compounds on PRMT5 was assessed using HTRF detection technology in biochemical assay. Biotinylated H4R3 (residues 1-21) was used as a substrate. Compounds were pre-incubated with 15-25 ng PRMT5:MEP50 per well of a 384-well plate for 30 min at room temperature in the assay buffer containing 20 mM Bicine, pH 7.6, 25 mM NaCl, 2 mM DTT, 0.01% Chicken albumin and 0.01% Tween-20. Reaction was initiated by adding 1 μM of SAM and 50 nM biotinylated H4R3. Total assay volume was 15 μL. Reaction was continued for 120 min at room temperature. Then detection solution containing Streptavidin-Eu cryptate, anti-rabbit IgG-XL-665, Histone H4R3 Dimethyl Symmetric (H4R3me2s) Polyclonal Antibody, all prepared in HTRF detection buffer was added and further incubated for 30 min at room temperature. HTRF signal was recorded in PHERAStar microplate reader. Ratio of signal obtained at 665 nm and 620 nm was used to compute the percent inhibition of compound as follows % Inhibition=100−((Test Ratio−Negative control Ratio)/(Positive control Ratio−Negative control Ratio)*100) where Positive control=PRMT5+SAM+H4R3 Negative control=PRMT5+H4R3 Biochemical Assay Protocol 2
# as §1, with “2.5” for “15-25”, “4 h” for “120 min”, “control=PRMT5+H4R3” for “control=PRMT5+H4R3 Biochemical Assay Protocol 2”
compound,measurement,setting,value
"Nc1nc2cc(CCC3=C[C@@H](n4ccc5c4ncn4ccnc54)[C@H](O)[C@@H]3O)ccc2cc1Br [Compound 26, (1S,2R,5R)-3-(2-(2-Amino-3-bromoquinolin-7-yl)ethyl)-5-(7H-imidazo[1,2-c]pyrrolo[3,2-e]pyrimidin-7-yl)cyclopent-3-ene-1,2-diol]",IC50,Z-138 cells,> 1 nM
same,IC50,SDMA,1.1 to 50 nM
same,IC50,PRMT5:MEP50,> 0.95 nM

# — patent US12391695B2, “PRMT5 inhibitors” (Lupin Limited, priority 2019, dated 2025)
